The source of these data is US11142560B2, “Biphasic single-chain insulin analogues” (Case Western Reserve University, priority 2014, dated 2021).

Bridge positions count the residues as written; N and C are the ends. Ends that are not written are not given here.

In the test the target is A isoform of the insulin receptor (Homo sapiens, UniProt P06213). Kind of test: Receptor-binding assay, insulin receptor A isoform. To be noted: two-site sequential model, read-out: equilibrium dissociation constant / binding constant. As for the experimental part: The receptor-binding affinities of SCI-57DP and SCI-57PE were determined in relation to wild-type human insulin. The assay employed the A isoform of the insulin receptor. […] The protocol for assay of receptor-binding activities was as follows. Microtiter strip plates (Nunc Maxisorb) were incubated overnight at 4° C. with AU5 IgG (100 μl/well of […] in phosphate-buffered saline). Binding data were analyzed by a two-site sequential model.
Chain of A isoform of the insulin receptor (P06213 28-746 isoform P06213-2 limits assumed): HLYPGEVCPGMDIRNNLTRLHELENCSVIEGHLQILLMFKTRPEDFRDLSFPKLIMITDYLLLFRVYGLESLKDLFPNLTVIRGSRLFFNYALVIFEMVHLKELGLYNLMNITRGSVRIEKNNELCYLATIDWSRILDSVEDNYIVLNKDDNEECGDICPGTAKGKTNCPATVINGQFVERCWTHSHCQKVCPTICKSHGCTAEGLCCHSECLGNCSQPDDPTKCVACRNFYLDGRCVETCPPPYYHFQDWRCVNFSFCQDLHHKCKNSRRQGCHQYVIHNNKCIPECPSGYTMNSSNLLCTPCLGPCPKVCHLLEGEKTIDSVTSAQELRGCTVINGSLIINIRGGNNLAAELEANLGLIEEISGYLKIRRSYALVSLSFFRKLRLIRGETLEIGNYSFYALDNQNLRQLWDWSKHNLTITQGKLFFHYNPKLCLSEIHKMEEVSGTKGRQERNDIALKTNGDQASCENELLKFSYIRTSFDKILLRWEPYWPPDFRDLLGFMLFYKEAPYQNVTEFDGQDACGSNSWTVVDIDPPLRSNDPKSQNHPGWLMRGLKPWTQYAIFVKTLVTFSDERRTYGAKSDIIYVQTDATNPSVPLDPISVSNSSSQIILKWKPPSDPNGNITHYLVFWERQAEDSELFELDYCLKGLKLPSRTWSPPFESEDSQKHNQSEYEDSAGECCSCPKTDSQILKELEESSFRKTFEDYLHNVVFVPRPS
Chain of A isoform of the insulin receptor (P06213 763-1382 partner limits assumed): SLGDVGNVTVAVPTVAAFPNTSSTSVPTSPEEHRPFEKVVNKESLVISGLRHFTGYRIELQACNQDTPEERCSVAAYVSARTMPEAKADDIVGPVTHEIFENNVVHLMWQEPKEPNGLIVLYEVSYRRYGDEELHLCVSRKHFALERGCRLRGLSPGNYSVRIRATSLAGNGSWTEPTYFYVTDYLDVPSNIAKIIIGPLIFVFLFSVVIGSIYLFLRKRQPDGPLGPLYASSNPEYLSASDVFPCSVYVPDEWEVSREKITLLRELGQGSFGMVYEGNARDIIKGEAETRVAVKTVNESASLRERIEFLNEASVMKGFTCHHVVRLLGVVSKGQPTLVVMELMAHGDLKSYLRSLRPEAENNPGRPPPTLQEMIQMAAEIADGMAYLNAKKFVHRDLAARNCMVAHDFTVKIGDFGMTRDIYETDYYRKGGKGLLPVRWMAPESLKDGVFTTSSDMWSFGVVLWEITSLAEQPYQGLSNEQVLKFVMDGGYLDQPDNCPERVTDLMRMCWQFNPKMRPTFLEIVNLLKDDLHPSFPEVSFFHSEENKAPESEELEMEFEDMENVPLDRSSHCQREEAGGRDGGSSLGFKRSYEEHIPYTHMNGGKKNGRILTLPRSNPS

“FVNQHLCGSHLVEALYLVCGERGFFYTDPTEEGPRRGIVEQCCHSICSLEQLENYCN (disulfide 7-43, 19-56, 42-47) [SCI-57DP]”: the Kd worked out at 0.06 nM.
Next, “FVNQHLCGSHLVEALYLVCGERGFFYTPETEEGPRRGIVEQCCHSICSLEQLENYCN (disulfide 7-43, 19-56, 42-47) [SCI-57PE]”: 0.08 nM.
